Experimental data taken from patent publication US20240109900A1, “AZABICYCLIC SHP2 INHIBITORS” (IRBM S.P.A., priority 2021, published 2024).
Where two headings read alike, the source gives them in different places.

Key:
[1] = target: SHP-2 enzyme (Met1-Leu525) (Homo sapiens (Human), UniProt Q06124); assay: SHP2 inhibition enzymatic assay; format: biochemical; conditions: 0.5 nM SHP-2 activated by 500 nM IRS1 peptide, 75 μM DiFMUP substrate; read-out: SHP2wt-IC50
Summary of the method: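 Compounds were preincubated 30 min with 0.5 nM SHP-2 (Met1-Leu525) plus 500 nM IRS1 activating peptide (pH 7.2 HEPES, 5 mM DTT), then 75 μM DiFMUP substrate reacted 30 min at room temperature. After bpV quench, DiFMUP fluorescence gave % inhibition; four-parameter logistic fit yielded IC50.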

[2] = test system: ERK phosphorylation in KYSE-520 cells; assay: Phospho-ERK cellular assay; format: cell-based; conditions: KYSE-520 cells, 2 h at 37° C., phospho-ERK1/2 (Thr202/Tyr204) TR-FRET, read-out: PERK IC50
Summary of the method: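 TR-FRET read-out of ERK1/2 Thr202/Tyr204 phosphorylation was taken after overnight antibody incubation at room temperature. Before that, KYSE-520 cells were treated 2 h at 37 °C with compound dilutions and lysed 30 min. Percent inhibition relative to vehicle and cell-free wells was fitted four-parametrically to give IC50.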

Chain of SHP-2 enzyme (Met1-Leu525) (Q06124 1-525): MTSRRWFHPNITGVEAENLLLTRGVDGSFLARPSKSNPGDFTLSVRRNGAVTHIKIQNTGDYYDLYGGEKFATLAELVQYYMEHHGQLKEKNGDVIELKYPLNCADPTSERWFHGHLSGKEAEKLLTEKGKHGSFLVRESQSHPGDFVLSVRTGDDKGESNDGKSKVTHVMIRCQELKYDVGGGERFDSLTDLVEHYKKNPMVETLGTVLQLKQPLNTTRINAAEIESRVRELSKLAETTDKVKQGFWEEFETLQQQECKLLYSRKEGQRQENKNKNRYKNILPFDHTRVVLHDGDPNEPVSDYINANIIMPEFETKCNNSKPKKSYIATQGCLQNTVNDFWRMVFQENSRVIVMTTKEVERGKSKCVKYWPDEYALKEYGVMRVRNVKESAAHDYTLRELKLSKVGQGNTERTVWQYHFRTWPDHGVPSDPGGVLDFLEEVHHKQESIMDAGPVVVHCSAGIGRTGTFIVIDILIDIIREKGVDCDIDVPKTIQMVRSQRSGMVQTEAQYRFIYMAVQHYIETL

| IC50 [1] [nM] | IC50 ([2]; Homo sapiens, KYSE-520, 2 h) [nM] | IC50 [2] [nM] | Compound |
| --- | --- | --- | --- |
| < 500 | < 1000 |  | Cn1ccc([C@@]2(CN)[C@@H]3CN(c4cnc5c(-c6ccc7nn(C)cc7c6Cl)n[nH]c5n4)C[C@@H]32)n1 [Example 474, ((1R,5S,6r)-3-(3-(4-chloro-2-methyl-2H-indazol-5-yl)-1H-pyrazolo[3,4-b]pyrazin-6-yl)-6-(1-methyl-1H-pyrazol-3-yl)-3-azabicyclo[3.1.0]hexan-6-yl)methanamine] |
| < 500 |  | < 1000 | Cc1nc(N2CC[C@@H]3[C@H](C2)[C@@]3(CN)c2cc(F)ccc2F)cc(=O)n1-c1cccc(Cl)c1Cl [Example 412, 6-((1S,6R,7R)-7-(aminomethyl)-7-(2,5-difluorophenyl)-3-azabicyclo[4.1.0]heptan-3-yl)-3-(2,3-dichlorophenyl)-2-methylpyrimidin-4(3H)-one] |
| < 500 | < 1000 |  | Cc1cc([C@@]2(CN)[C@@H]3CCN(c4cnc5c(-c6ccnc7ccc(F)cc67)n[nH]c5n4)C[C@@H]32)no1 [Example 39, ((1S,6R,7S)-3-(3-(6-fluoroquinolin-4-yl)-1H-pyrazolo[3,4-b]pyrazin-6-yl)-7-(5-methylisoxazol-3-yl)-3-azabicyclo[4.1.0]heptan-7-yl)methanamine] |
